Source: patent publication US8299223B2, “Pseudoglycolipid and use thereof” (Riken, priority 2007, dated 2012)

Key:
IL-4 [1] = experiment: Experimental Example 3: dendritic cells plus human peripheral blood mononuclear cells, IL-4 in culture supernatant; assay type: cell-based; details: culture supernatants; as compared to α-GalCer and α-C-GalCer; FIG. 4
Protocol: (§1) The following experiment was performed for human NKT cell proliferation and IFN-γ production induction.
(§2) Monocytes were prepared from the peripheral blood of a healthy subject by anti-CD14 microbeads (Miltenyi Biotech), and dendritic cells were induced using GM-CSF and IL-4 (Peprotech). To the dendritic cells was added α-GalCer or synthetic glycolipid (α-C-GalCer, compound 11′, compound 51′), human peripheral blood mononuclear cell was added and the cells were cultured.

IFN-γ [2] = experiment: Experimental Example 3: human NKT cell proliferation and IFN-γ production induction, dendritic cells plus peripheral blood mononuclear cells, IFN-γ in culture supernatant; assay type: cell-based; details: as compared to α-GalCer and α-C-GalCer; for IFN-γ concentration of the culture supernatants: 3 days and 8 days later, FIG. 4 (a), (b); for selectivity of IFN-γ production induction: IFN-γ versus IL-4, FIG. 4 (a)-(d)
Protocol: as §1, §2
In this experiment, the IFN-γ concentration of the culture supernatants 3 days and 8 days later was measured. As a result, the concentration was very high when stimulated with compound 11′ and compound 51′ as compared to α-GalCer and α-C-GalCer (FIG. 4 (a), (b)).

IFN-γ [3] = experiment: Experimental Example 1: IFN-γ content of plasma after intraperitoneal injection in C57BL/6 mouse (Cytometric bead array); assay type: in vivo; details: intraperitoneal 100, 10 or 1 μg/kg body weight, plasma 6, 12, 24, 36 and 48 hr after administration, FIG. 1
Protocol: (§3) Compound 11′ was dissolved in […] saline (manufactured by OTSUKA PHARMACEUTICAL CO., LTD) containing Tween 20 (Bio-Rad) and prepared to a dose of 100 μg/kg body weight, 10 μg/kg body weight or 1 μg/kg body weight C57BL/6 mouse (5 per group), and the compound 11′ solution (200 μL) was intraperitoneally injected.
(§4) α-GalCer was used as a control substance, and 200 μL of each α-GalCer solution prepared to a dose of 100 μg/kg body weight, 10 μg/kg body weight or 1 μg/kg body weight according to a similar method was intraperitoneally injected.
(§5) A group administered with a medium (200 μL of saline containing 0.5% Tween 20) was taken as a negative control. The blood (80 μL) was taken from the orbital plexus venosus immediately before administration and 3, 6, 12, 24, 36 and 48 hr after administration, and the plasma was prepared. The IL-4 content of plasma immediately before administration and 3, 6 and 12 hr after administration, as well as IFN-γ content of plasma immediately before administration and 6, 12, 24, 36 and 48 hr after administration were measured by Cytometric bead array system (BD Biosciences), which is one kind of the ELISA method. The measurement results of IFN-γ production amount are shown FIG. 1 and the measurement results of IL-4 production amount are shown in FIG. 2.

IL-4 [4] = experiment: Experimental Example 1: IL-4 content of plasma after intraperitoneal injection in C57BL/6 mouse (Cytometric bead array); assay type: in vivo; details: intraperitoneal 100, 10 or 1 μg/kg body weight, plasma 3, 6 and 12 hr after administration, FIG. 2
Protocol: as §3, §4, §5

B16 melanoma = experiment: Experimental Example 2: anti-liver metastasis effect, survival after intrasplenic transfer of B16 melanoma; assay type: in vivo, mouse; details: FIG. 3
Protocol: The following experiment was performed for the anti-liver metastasis effect.
The left side of mouse was opened under anesthesia, and the spleen was exposed. 1×10^6 B16 melanoma was intrasplenically transferred using a 1 mL syringe (TERUMO CORPORATION), maintained for 30 sec, and the blood vessel was sutured. The spleen was isolated and the peritoneal membrane was sutured with a surgical thread (No. 4, Alfresa Pharma Corporation), and the outer skin was joined with a surgical clip. After 3 hr from the cell transfer, α-GalCer and compound 11′ were administered each in an amount of 2, 0.2 or 0.02 μg per mouse from the tail vein and the survival rate of each group was examined.

| Structure (SMILES) | IL-4 concentration (IL-4 [1]) | IFN-γ concentration of the culture supernatants (IFN-γ [2]) | selectivity of IFN-γ production induction (IFN-γ [2]) | IFN-γ production amount (IFN-γ [3]) | IL-4 production amount (IL-4 [4]) | survival period (B16 melanoma; 2, 0.2 or 0.02 μg per mouse from the tail vein 3 hr after cell transfer, as compared to the non-treatment group and the α-GalCer administration group) | survival period (B16 melanoma; administration of 0.2 and 0.02 μg per mouse, as compared to the α-GalCer administration group) |
| --- | --- | --- | --- | --- | --- | --- | --- |
| CCCCCCCCCCCCCCCCCCCCCCCCCC(=O)N[C@@H](CO[C@H]1CC(CO)[C@H](O)C(O)C1O)[C@H](O)[C@H](O)CCCCCCCCCCCCCC (stereo partly drawn) [compound 11′, (2S,3S,4R)-1-(5a-carba-α-D-galactopyranosyloxy)-2-(hexacosanoylamino)-3,4-octadecanediol] | almost the same | very high | selectively induced IFN-γ production | preferentially produced IFN-γ | in a small amount | extended | remarkable elongated |
| CCCCCCCCCCCCCCCCCCCCCCCCCC(=O)N[C@@H](CO[C@H]1C[C@H](C)[C@H](O)[C@H](O)[C@H]1O)[C@H](O)[C@H](O)CCCCCCCCCCCCCC [compound 51′, (2S,3S,4R)-1-(5a-carba-α-D-fucopyranosyloxy)-2-(hexacosanoylamino)-3,4-octadecanediol] | almost the same | very high | selectively induced IFN-γ production | – | – | – | – |
| CCCCCCCCCCCCCCCCCCCCCCCCCC(=O)N[C@@H](COC1OC(CO)C(O)C(O)C1O)[C@H](O)[C@H](O)CCCCCCCCCCCCCC (stereo partly drawn) [α-GalCer, α-galactosylceramide, reference compound] | – | – | – | in large amounts | in large amounts | – | – |
